Assay results as given in patent US11123337B2, “4-methylsulfonyl-substituted piperidine urea compounds” (MYOKARDIA, INC., priority 2015, dated 2021).

These compounds were tested against bovine cardiac myosin (Bos taurus, UniProt Q9BE39) (assay: Myosin activation assay (PK/LDH-coupled ATPase, bovine cardiac myofibrils)). Conditions: AC20 = concentration at which total response is increased by twenty percent.
bovine cardiac myosin, sequence (Q9BE39 whole entry): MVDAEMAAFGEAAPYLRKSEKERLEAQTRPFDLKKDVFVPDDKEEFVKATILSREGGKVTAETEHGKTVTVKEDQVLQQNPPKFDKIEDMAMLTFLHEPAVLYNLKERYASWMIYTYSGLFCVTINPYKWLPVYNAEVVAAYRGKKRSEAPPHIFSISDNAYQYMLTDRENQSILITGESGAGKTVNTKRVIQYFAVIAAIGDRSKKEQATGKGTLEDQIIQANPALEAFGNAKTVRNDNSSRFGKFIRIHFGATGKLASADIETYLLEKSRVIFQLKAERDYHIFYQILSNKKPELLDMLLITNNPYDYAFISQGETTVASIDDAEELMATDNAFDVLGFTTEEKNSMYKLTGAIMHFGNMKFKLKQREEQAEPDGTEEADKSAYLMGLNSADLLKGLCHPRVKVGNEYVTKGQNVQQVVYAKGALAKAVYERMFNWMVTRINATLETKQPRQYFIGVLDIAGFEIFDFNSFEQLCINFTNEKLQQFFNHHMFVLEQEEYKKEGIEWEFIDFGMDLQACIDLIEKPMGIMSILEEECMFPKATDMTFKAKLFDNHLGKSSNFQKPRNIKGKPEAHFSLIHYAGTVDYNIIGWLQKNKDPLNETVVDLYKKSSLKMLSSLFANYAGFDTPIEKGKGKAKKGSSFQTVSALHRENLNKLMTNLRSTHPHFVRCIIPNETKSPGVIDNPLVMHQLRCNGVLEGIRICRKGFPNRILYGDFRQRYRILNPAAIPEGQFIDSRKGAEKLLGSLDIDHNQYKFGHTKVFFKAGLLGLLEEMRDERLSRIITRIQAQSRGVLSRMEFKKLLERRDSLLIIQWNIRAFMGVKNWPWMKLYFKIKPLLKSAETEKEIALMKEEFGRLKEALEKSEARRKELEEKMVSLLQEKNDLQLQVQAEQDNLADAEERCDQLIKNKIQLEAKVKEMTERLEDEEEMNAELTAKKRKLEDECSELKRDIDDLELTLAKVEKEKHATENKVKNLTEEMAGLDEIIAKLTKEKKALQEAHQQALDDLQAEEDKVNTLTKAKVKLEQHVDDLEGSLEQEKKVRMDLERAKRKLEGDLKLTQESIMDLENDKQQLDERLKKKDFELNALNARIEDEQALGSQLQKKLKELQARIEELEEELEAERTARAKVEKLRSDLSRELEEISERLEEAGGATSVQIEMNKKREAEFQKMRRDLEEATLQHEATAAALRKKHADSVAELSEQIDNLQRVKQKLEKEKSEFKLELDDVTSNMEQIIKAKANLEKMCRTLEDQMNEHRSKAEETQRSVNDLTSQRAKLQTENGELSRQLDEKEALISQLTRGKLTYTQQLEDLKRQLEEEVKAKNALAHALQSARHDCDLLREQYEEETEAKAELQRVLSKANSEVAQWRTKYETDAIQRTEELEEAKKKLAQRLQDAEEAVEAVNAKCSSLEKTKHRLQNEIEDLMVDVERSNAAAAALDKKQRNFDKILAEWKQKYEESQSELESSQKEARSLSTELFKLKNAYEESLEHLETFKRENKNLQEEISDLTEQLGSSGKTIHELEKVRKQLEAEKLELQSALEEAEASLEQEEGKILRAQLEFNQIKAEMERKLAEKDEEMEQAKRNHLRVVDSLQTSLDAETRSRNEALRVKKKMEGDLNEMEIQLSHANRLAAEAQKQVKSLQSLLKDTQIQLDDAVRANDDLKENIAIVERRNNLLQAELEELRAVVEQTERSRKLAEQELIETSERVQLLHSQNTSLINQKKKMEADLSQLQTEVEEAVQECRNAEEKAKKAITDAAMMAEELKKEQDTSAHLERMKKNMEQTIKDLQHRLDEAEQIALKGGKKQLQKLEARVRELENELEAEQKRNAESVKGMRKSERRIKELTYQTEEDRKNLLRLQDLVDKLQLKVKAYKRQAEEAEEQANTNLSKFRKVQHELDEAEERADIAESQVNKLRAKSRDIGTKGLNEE
bovine cardiac myosin, sequence (P85100 whole entry partner): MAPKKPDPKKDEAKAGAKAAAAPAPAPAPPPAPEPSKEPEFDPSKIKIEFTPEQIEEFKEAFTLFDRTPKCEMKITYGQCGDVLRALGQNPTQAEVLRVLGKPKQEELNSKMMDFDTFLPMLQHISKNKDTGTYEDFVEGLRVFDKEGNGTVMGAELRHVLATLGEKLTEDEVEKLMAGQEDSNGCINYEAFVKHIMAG
bovine cardiac myosin, sequence (Q3SZE5 whole entry partner): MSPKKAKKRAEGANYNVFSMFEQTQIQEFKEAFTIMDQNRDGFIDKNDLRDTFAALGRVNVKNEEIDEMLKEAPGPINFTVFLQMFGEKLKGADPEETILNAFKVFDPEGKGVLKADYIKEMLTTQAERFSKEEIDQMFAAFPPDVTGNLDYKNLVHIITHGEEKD
Format: biochemical
In short: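 Values are the concentrations raising the ATPase rate by 20% or 50% over DMSO, from 10-point dose responses fitted with four parameters. Rate is NADH loss at 340 nm via PK/LDH coupling, read 15 min at room temperature, in pH 6.8 PIPES with 50 μM ATP. Bovine cardiac myofibrils were held at pCa ~6 or pCa 10.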
For Cn1cc(S(=O)(=O)[C@](C)(F)C2CCN(C(=O)Nc3ccnc(F)c3)CC2)c(C(F)F)n1 [Compound 231, (S)-4-(1-((3-(difluoromethyl)-1-methyl-1H-pyrazol-4-yl)sulfonyl)-1-fluoroethyl)-N-(2-fluoropyridin-4-yl)piperidine-1-carboxamide], the “Myosin Activation (AC20)” value was “+ (+ represents myosin activation value AC20 > 5 μM)”. For COc1ccccc1S(=O)(=O)C(C)(C)C1CCN(C(=O)Nc2ccns2)CC1 [Compound 215, N-(isothiazol-5-yl)-4-(2-((2-methoxyphenyl)sulfonyl)propan-2-yl)piperidine-1-carboxamide], the “Myosin Activation (AC20)” value was “++ (++ represents myosin activation value AC20 from 2 μM-5 μM)”. Cn1cc(S(=O)(=O)C(C)(C)C2CCN(C(=O)Nc3ccnnc3)CC2)c(C(F)(F)F)n1 [Compound 120, 4-(2-((1-methyl-3-(trifluoromethyl)-1H-pyrazol-4-yl)sulfonyl)propan-2-yl)-N-(pyridazin-4-yl)piperidine-1-carboxamide] was tested, and the “Myosin Activation (AC20)” value was “++ (++ represents myosin activation value AC20 from 2 μM-5 μM)”. For CC(C)(C1CCN(C(=O)Nc2ccnnc2)CC1)S(=O)(=O)c1ccc(C#N)cc1 [Compound 180, 4-(2-((4-cyanophenyl)sulfonyl)propan-2-yl)-N-(pyridazin-4-yl)piperidine-1-carboxamide], the “Myosin Activation (AC20)” value was “++ (++ represents myosin activation value AC20 from 2 μM-5 μM)”. With COc1ccc(S(=O)(=O)C(C)(F)C2CCN(C(=O)Nc3ccnnc3)CC2)cn1 (stereo not drawn) [Compound 9, 4-(1-fluoro-1-((6-methoxypyridin-3-yl)sulfonyl)ethyl)-N-(pyridazin-4-yl)piperidine-1-carboxamide] the “Myosin Activation (AC20)” value was “+++ (+++ represents myosin activation value AC20 < 2 μM)”. With Cc1ccc(NC(=O)N2CCC(C(C)(F)S(=O)(=O)c3cc(C(F)(F)F)nn3C)CC2)cn1 (stereo not drawn) [Compound 250, 4-(1-fluoro-1-((1-methyl-3-(trifluoromethyl)-1H-pyrazol-5-yl)sulfonyl)ethyl)-N-(6-methylpyridin-3-yl)piperidine-1-carboxamide] the “Myosin Activation (AC20)” value was “++ (++ represents myosin activation value AC20 from 2 μM-5 μM)”. For CC(C)(C1CCN(C(=O)Nc2ccnnc2)CC1)S(=O)(=O)c1ccccc1C#N [Compound 204, 4-(2-((2-cyanophenyl)sulfonyl)propan-2-yl)-N-(pyridazin-4-yl)piperidine-1-carboxamide], the “Myosin Activation (AC20)” value was “+ (+ represents myosin activation value AC20 > 5 μM)”. With CC(C)(C1CCN(C(=O)Nc2ccnnc2)CC1)S(=O)(=O)c1ccc(C(F)(F)F)cc1 [Compound 181, N-(pyridazin-4-yl)-4-(2-((4-(trifluoromethyl)phenyl)sulfonyl)propan-2-yl)piperidine-1-carboxamide] the “Myosin Activation (AC20)” value was “++ (++ represents myosin activation value AC20 from 2 μM-5 μM)”. With Cc1cc(S(=O)(=O)C(F)(F)C2CCN(C(=O)Nc3ccnnc3)CC2)n(C2CC2)n1 [Compound 90, 4-(((1-cyclopropyl-3-methyl-1H-pyrazol-5-yl)sulfonyl)difluoromethyl)-N-(pyridazin-4-yl)piperidine-1-carboxamide] the “Myosin Activation (AC20)” value was “+ (+ represents myosin activation value AC20 > 5 μM)”. For Cn1cc(S(=O)(=O)C(C)(C)C2CCN(C(=O)Nc3ccon3)CC2)c(Cl)n1 [Compound 27, 4-(2-((3-Chloro-1-methyl-1H-pyrazol-4-yl)sulfonyl)propan-2-yl)-N-(isoxazol-3-yl)piperidine-1-carboxamide], the “Myosin Activation (AC20)” value was “+ (+ represents myosin activation value AC20 > 5 μM)”. Cn1cc(S(=O)(=O)C(C)(C)C2CCN(C(=O)Nc3cnoc3)CC2)c(C(F)F)n1 [Compound 157, 4-(2-((3-(difluoromethyl)-1-methyl-1H-pyrazol-4-yl)sulfonyl)propan-2-yl)-N-(isoxazol-4-yl)piperidine-1-carboxamide] was tested, and the “Myosin Activation (AC20)” value was “+++ (+++ represents myosin activation value AC20 < 2 μM)”. With C[C@](F)(C1CCN(C(=O)Nc2cnc3c(c2)CNC3=O)CC1)S(=O)(=O)c1cccc(F)c1 [Compound 301, (R)-4-(1-fluoro-1-((3-fluorophenyl)sulfonyl)ethyl)-N-(7-oxo-6,7-dihydro-5H-pyrrolo[3,4-b]pyridin-3-yl)piperidine-1-carboxamide] the “Myosin Activation (AC20)” value was “++ (++ represents myosin activation value AC20 from 2 μM-5 μM)”. With CC(F)(C1CCN(C(=O)Nc2ccnnc2)CC1)S(=O)(=O)c1ccccc1C(F)(F)F (stereo not drawn) [Compound 57, 4-(1-fluoro-1-((2-(trifluoromethyl)phenyl)sulfonyl)ethyl)-N-(pyridazin-4-yl)piperidine-1-carboxamide] the “Myosin Activation (AC20)” value was “++ (++ represents myosin activation value AC20 from 2 μM-5 μM)”. With CC(C)(C1CCN(C(=O)Nc2nnco2)CC1)S(=O)(=O)c1cccc(F)c1 [Compound 153, 4-(2-((3-fluorophenyl)sulfonyl)propan-2-yl)-N-(1,3,4-oxadiazol-2-yl)piperidine-1-carboxamide] the “Myosin Activation (AC20)” value was “+ (+ represents myosin activation value AC20 > 5 μM)”. For C[C@](F)(C1CCN(C(=O)Nc2ccc(CO)nc2)CC1)S(=O)(=O)c1cccc(F)c1 [Compound 286, (R)-4-(1-fluoro-1-((3-fluorophenyl)sulfonyl)ethyl)-N-(6-(hydroxymethyl)pyridin-3-yl)piperidine-1-carboxamide], the “Myosin Activation (AC20)” value was “+ (+ represents myosin activation value AC20 > 5 μM)”. COc1c(F)cccc1S(=O)(=O)C(F)(F)C1CCN(C(=O)Nc2ccnnc2)CC1 [Compound 61, 4-(difluoro((3-fluoro-2-methoxyphenyl)sulfonyl)methyl)-N-(pyridazin-4-yl)piperidine-1-carboxamide] was tested, and the “Myosin Activation (AC20)” value was “++ (++ represents myosin activation value AC20 from 2 μM-5 μM)”. With CC(C)(C1CCN(C(=O)Nc2cccnc2)CC1)S(=O)(=O)c1cccc(F)c1 [Compound 133, 4-(2-((3-fluorophenyl)sulfonyl)propan-2-yl)-N-(pyridin-3-yl)piperidine-1-carboxamide] the “Myosin Activation (AC20)” value was “++ (++ represents myosin activation value AC20 from 2 μM-5 μM)”. With C[C@H](O)c1cc(NC(=O)N2CCC(C(F)(F)S(=O)(=O)c3cn(C)nc3C(F)F)CC2)ccn1 [Compound 99, (S)-4-(((3-(difluoromethyl)-1-methyl-1H-pyrazol-4-yl)sulfonyl)difluoromethyl)-N-(2-(1-hydroxyethyl)pyridin-4-yl)piperidine-1-carboxamide] the “Myosin Activation (AC20)” value was “+ (+ represents myosin activation value AC20 > 5 μM)”. With C[C@](F)(C1CCN(C(=O)Nc2ccnnc2)CC1)S(=O)(=O)c1cccc(F)c1 [Compound 278, (R)-4-(1-fluoro-1-((3-fluorophenyl)sulfonyl)ethyl)-N-(pyridazin-4-yl)piperidine-1-carboxamide] the “Myosin Activation (AC20)” value was “+++ (+++ represents myosin activation value AC20 < 2 μM)”. In the case of Cn1nccc1S(=O)(=O)C(C)(F)C1CCN(C(=O)Nc2ccc(F)nc2)CC1 (stereo not drawn) [Compound 228, 4-(1-fluoro-1-((1-methyl-1H-pyrazol-5-yl)sulfonyl)ethyl)-N-(6-fluoropyridin-3-yl)piperidine-1-carboxamide], the “Myosin Activation (AC20)” value was “++ (++ represents myosin activation value AC20 from 2 μM-5 μM)”. For Cn1cc(S(=O)(=O)C(F)(F)C2CCN(C(=O)Nc3ccnc(CO)c3)CC2)c(C(F)F)n1 [Compound 101, 4-(((3-(difluoromethyl)-1-methyl-1H-pyrazol-4-yl)sulfonyl)difluoromethyl)-N-(2-(hydroxymethyl)pyridin-4-yl)piperidine-1-carboxamide], the “Myosin Activation (AC20)” value was “++ (++ represents myosin activation value AC20 from 2 μM-5 μM)”.
